The numbers were not newly measured in US20060233843A1, “Treatment of psychosis with a muscarinic m1 receptor ectopic activator” (priority 2003, published 2006), which cites them from elsewhere.

The series addresses T1, M1 receptor, residue 381 mutated from tyrosine to alanine (Homo sapiens, UniProt P11229, Y381A).
T1 sequence (P11229 1-460 Y381A): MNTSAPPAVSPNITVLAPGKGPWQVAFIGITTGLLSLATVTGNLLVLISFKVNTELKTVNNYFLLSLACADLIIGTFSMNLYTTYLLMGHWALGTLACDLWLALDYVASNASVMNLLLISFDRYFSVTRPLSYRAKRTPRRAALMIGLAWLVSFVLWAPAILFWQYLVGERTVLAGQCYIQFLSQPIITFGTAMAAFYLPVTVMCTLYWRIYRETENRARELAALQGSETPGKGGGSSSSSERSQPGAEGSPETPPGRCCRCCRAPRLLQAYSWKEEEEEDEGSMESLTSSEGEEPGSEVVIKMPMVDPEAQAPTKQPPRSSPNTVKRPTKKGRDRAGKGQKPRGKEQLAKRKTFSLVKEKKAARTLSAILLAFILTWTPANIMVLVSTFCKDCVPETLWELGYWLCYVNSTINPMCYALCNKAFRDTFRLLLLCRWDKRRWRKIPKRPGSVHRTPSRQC
Conditions: M1 receptor Y381A mutant versus wild type.

SMILES strings stand for the structures.

In the case of `CCCCC1CCN(CCCC(=O)c2ccccc2C)CC1` [AC-42], the “effect of mutation of residue 381 from tyrosine to alanine on pharmacology” value is given as “not affecting”. `Clc1ccc2c(c1)N=C(N1CCNCC1)c1ccccc1N2` [N-desmethylclozapine, Desmethylclozapine]: the “increase of ectopic agonist potency by mutation of residue 381 from tyrosine to alanine” value is listed as 8 fold.
